The source of these data is patent publication US20230101046A1, “ANAPLASTIC LYMPHOMA KINASE CHIMERIC ANTIGEN RECEPTORS AND METHODS OF USE” (The Children's Medical Center Corporation, priority 2020, published 2023).

SMILES strings stand for the structures.

Assay [1] relates to Eμ-myc/ALK systemic tumors. Briefly: Adoptive transfer in CD19+/ALK+ systemic leukemia model. The assay is classed as in vivo, mice. On the procedure:
The CD19+/ALK+systemic leukemia model was used to validate and rank cytolytic activity of ALK CARs in vivo. Adoptive transfer of ALK CAR-T cells was conducted in mice with Eμ-myc/ALK systemic tumors. Mice were treated with cytophspamide (CTX, 100 mg/kg) alone (n=8), cytophosphamide plus CAR-CD19 (15×10^6 based on GFP+) (n=8), or cytophosphamide plus CAR-ALK #5 (15×10^6 based on GFP+) (n=8). Untreated mice (n=6) were used as a negative control. FIG. 5A provides a survival curve of these treated mice.
Circulating CD19+/ALK+ tumor cells were found in peripheral blood (FIG. 5B, Left). An ALK+ tumor mass was isolated close to lymph node (FIG. 5B, Right). FACS analysis was also conducted on the 6 out of 8 mice that survived more than two months. No tumor cells were found in peripheral blood of these mice (FIG. 5C).

Another assay concerns Kelly or SH-SY5Y cells. In words: Viability / proliferation of neuroblastoma cell lines treated with lorlatinib. Format: cell-based, human. To be noted: 100 nM. As to the method: First generation ALK tyrosine kinase inhibitors (TKIs), such as crizotinib, have limited therapeutic efficacy in neuroblastoma, while the third generation ALK TKI, lorlatinib, is effective against mutated neuroblastoma (Infarinato N R, et al., The ALK/ROS1 Inhibitor PF-06463922 Overcomes Primary Resistance to Crizotinib in ALK-Driven Neuroblastoma. Cancer Discov 2016 January; 6(1):96-107). The effects of lorlatinib on ALK viability and expression in neuroblastoma cells was evaluated. Several neuroblastoma cell lines with various ALK genetic alterations, including NB-1 (ALK WT amplified), IMR-32 (ALK WT), NBL-S(ALK WT), SH-SY5Y (mutated ALK^F1174L), Kelly (mutated ALK^F1174L), were treated with increasing doses of lorlatinib (FIG. 10A). Viability was measured at 48 hours.
In white 96-well plates, 3×10^4 cells/mL were grown in triplicates. The treatment with lorlatinib was done after 24 hour. Cell growth was analyzed 5 days after treatment using Cell Titer-GloMax assay (Promega, Fitchburg, Wis., USA), according to the manufacturer's instructions. In 24-well plates, 5×10^4 cells/mL were grown in triplicates. […] Apoptosis was measured 48 hours after treatment by flow cytometry after staining with the FITC Annexin V and propidium iodide (PI) Staining Solution Apoptosis Detection Kit I (BD Pharmingen) according to the manufacturer's instructions.

As for `O=P1(N(CCCl)CCCl)NCCCO1` (stereo not drawn) [cyclophosphamide], the “tumor cells in peripheral blood by FACS” value in assay [1] (CD19+/ALK+ cells) is recorded as “CD19+/ALK+ cells were found in one mouse”. In addition, the survival of mice entry in assay [1] (Eμ-myc/ALK systemic tumors, CTX 100 mg/kg, CAR-T 15×10^6 based on GFP+) was “died within one month”. `C[C@H]1Oc2cc(cnc2N)-c2c(nn(C)c2C#N)CN(C)C(=O)c2ccc(F)cc21` [Lorlatinib, lorlatinib]: the reduction of proliferation entry in the assay on Kelly or SH-SY5Y cells was “less than 50%”.
